Test results as given in publication PMC5589637, “New perspectives of cobalt tris(bipyridine) system: anti-cancer effect and its collateral sensitivity towards multidrug-resistant (MDR) cancers” (Oncotarget, 2017).

Key:
[1] = tested on: HeLa (cervical cancer) cells; test: MTT cytotoxicity assay, HeLa; type: cell-based; conditions: 72 h
Description: (§1) All tested compounds were dissolved in DMSO at a final concentration of 50 mmol/L and stored at −20°C before use. Cytotoxicity was assessed by using the 3-(4,5-dimethylthiazol-2-yl)-2, 5-diphenyltetrazolium bromide (MTT) (5.0 mg/ml) assay as previously described. Briefly, 4×10^3 cells per well were seeded in 96-well plates before drug treatments. After overnight culture, the cells were then exposed to different concentrations of selected compounds ([…]) for 72 hours. Cells without drug treatment were used as control. Subsequently, MTT (10 μL) solution was added to each well and incubated at 37°C for 4 hours followed by the addition of 100 μL solubilization buffer (10%SDS in 0.01 mol/L HCl) and overnight incubation. A570 nm was then determined in each well on the next day. The percentage of cell viability was calculated using the following formula: Cell viability (%) = Atreated/Acontrol × 100. Data were obtained from three independent experiments.

[2] = tested on: HepG2 (liver cancer) cells; test: MTT cytotoxicity assay, HepG2; type: cell-based; conditions: 72 h
Description: as §1

[3] = tested on: MCF-7 (breast cancer) cells; test: MTT cytotoxicity assay, MCF-7; type: cell-based; conditions: MCF-7, MTT, 72 h
Description: as §1

[4] = tested on: HCT116 p53^+/+ colon cancer cells; test: MTT cytotoxicity, HCT116 p53+/+; type: cell-based, human; conditions: 72 h
Description: (§2) All cells were obtained from the American Type Culture Collection (Rockville, MD, USA) unless otherwise specified. Immortalized wild-type and Atg7-deficient mouse embryonic fibroblasts (MEFs) were kindly provided by Professor Masaaki Komatsu (Juntendo University, School of Medicine, Japan). Taxol-resistant types of MCF-7, HCT-8, A549 cancers cells and cisplatin-resistant SGC7901 cancer cells were purchased from KeyGEN BioTECH, China. Cisplatin-sensitive or –resistant A2780, OV2008 and C13 cancer cells were kindly provided by Prof. Benjamin Tsang (Department of Obstetrics and Gynecology and Department of Cellular and Molecular Medicine, University of Ottawa, Canada). HCT116 p53^+/+ and p53^−/− isogenic human colon cancer cells were kindly provided by Professor Bert Vogelstein (Ludwig Center at Johns Hopkins, Howard Hughes Medical Institute, USA). All media were supplemented with 10% fetal bovine serum and antibiotics penicillin (50 U/ml) and streptomycin (50 μg/ml; Invitrogen, Paisley, Scotland, UK). All cell cultures were incubated at 37°C in a 5% humidified CO2 incubator.
as §1

[5] = tested on: HeLa cancer cells; test: Endogenous autophagy detection (LC3-II puncta immunofluorescence); type: cell-based; conditions: 24 h
Description: The detection of endogenous LC3 was conducted using immunofluorescence staining method as described below. In brief, cobalt complex 2-treated HeLa cancer cells on cover slips were fixed with 4% paraformaldehyde (Sigma) for 20 min at room temperature and then rinsed with PBS. Coverslips were immersed in methanol at room temperature for 2 min. After washing with PBS, the cells were then incubated with anti-LC3 (1:200) in TBST (100 mM Tris HCl, pH 7.5, 150 mM NaCl, 0.05% Tween 20 and 5% BSA) overnight at 4 °C. After washing with PBS, the cells were incubated with anti-mouse secondary antibody (TRITC) (1:200) in TBST containing 5% BSA at 37°C for 1 hour in the dark. The coverslips were then mounted with FluorSave™ mounting media (Calbiochem, San Diego, CA, USA) for fluorescence imaging and localization of LC3 autophagosomes were captured under the API Delta Vision Live-cell Imaging System (Applied Precision Inc.,GE Healthcare Company, Washington, USA). To quantify autophagy, guidelines were followed. The percentage of cells with autophagic induction was calculated by the number of the cells with increased formation of punctate LC3 fluorescence dots (≥ 10 dots/cell) over the total number of immunofluorescence-positive cells in the same field. A minimum of 1000 cells from randomly selected fields were scored.

[6] = tested on: H1299 (lung cancer) cells; test: MTT cytotoxicity assay, H1299; type: cell-based, human; conditions: 72 h
Description: as §1

[7] = tested on: A549 (EGFR wild-type lung cancer) cells; test: MTT cytotoxicity assay, A549; type: cell-based; conditions: 72 h
Description: as §1

[8] = tested on: SGC-7901 cisplatin-resistant cancer cells; test: MTT cytotoxicity, cisplatin-resistant SGC-7901; type: cell-based
Description: as §2, §1

[9] = target: P-gp (Homo sapiens, UniProt P08183); conditions: taxol-resistant MCF-7, HCT-8 and A549, 0.5-10 μM, 4 h, dose-dependent
Description: Taxol-resistant cancer cells were seeded in 6 well plate with 2 × 10^5 cells each well and cultured for 24 h at 37°C in an atmosphere containing 5% CO2. […] Subsequently, 5 μg/mL of Rho123 was added to each well and the wells were incubated for another 1 h at 37°C. The accumulation of Rho123 was stopped by washing the cells five times with ice-cold PBS. The cells were then resuspended in 400 μL PBS for flow cytometry analysis. Intracellular fluorescence was measured using a flow cytometer at an excitation wavelength of 488 nm and emission wavelength of 525 nm. All data acquisition and analysis were performed with CellQuest (BD Biosciences, San Jose, CA, USA) with at least three independent experiments. Results were shown as the mean of fluorescence intensity.

[10] = target: P-gp ATPase (Homo sapiens, UniProt P08183); conditions: 0–2 μM, verapamil (200 μM) stimulated, ATP, 1 h at 37°C
Description: The luminescence of the sample reflects the ATP level in the sample, which is negatively correlated with the activity of P-gp ATPase and was recorded using the SpectraMax Paradigm Multi-Mode Microplate Reader (Molecular Devices). DMSO-treated activities are expressed as the percentage of basal activity.

[11] = Pharmacokinetic study (HPLC-MS of blood samples); type: in vivo; conditions: male C57BL/6 mice
Description: Pharmacokinetic study of cobalt complex 2 was performed in male C57BL/6 mice by the dosage of 40 mg/kg. The source of mouse and practice of husbandry were the same as described in the methodology section of LLC-1 Xenograft Tumor experiment. Cobalt complex 2 was diluted in the formula (PEG400: H2O: Ethanol = 6:3:1) and administered by intraperitoneal in a volume of 0.005 mL/g bodyweight. After dosing, blood samples were collected to sodium heparin anticoagulant tube at different time points (5, 15, 30 min, and then 1, 2, 4, 8, 12 and 24 hours); 4 mice were used for each time point. Approximately 200 μL of blood was collected via orbital vein from each anesthetized mouse by isoflurane. Plasma was separated by centrifugation at 3000 g for 10 minutes at 4°C. The plasma was protected and stored at −80°C until analyzed by liquid chromatography-mass spectrometry/mass spectrometry (LC-MS/MS) for quantification.
Plasma samples were thawed at room temperature and then vortexed to ensure sample solution homogeneity. Firstly, a 20 μL aliquot of each plasma sample were loaded into 1.5 mL tube, 100 μL acetonitrile was added, vortexed then centrifuged at 13000 rpm for 10 min. the supernatant was collected. The plasma cobalt complex 2 concentrations were quantified using Thermo HPLC Ultimate 3000 system. The compound in plasma samples were analyzed by using the Agilent Zorbax Eclipse Plus C-18 column with a particle size of 1.8 μm. The parameters of the gradient elution program were applied as follows: mobile phase A (0.1% formic acid in water) and mobile phase B acetonitrile: 0–5.5 min, 20% B; 5.5–7 min, 90% B; 7–10 min, 20% B. The column and autosampler temperature were maintained at 40 and 4 °C, respectively. The gas temperature was set 320 °C with flow rate (0.8 mL/min), gases were set at 10 psi for the nebulizer, capillary, 3500 V.

P-gp ATPase, sequence (P08183 whole entry): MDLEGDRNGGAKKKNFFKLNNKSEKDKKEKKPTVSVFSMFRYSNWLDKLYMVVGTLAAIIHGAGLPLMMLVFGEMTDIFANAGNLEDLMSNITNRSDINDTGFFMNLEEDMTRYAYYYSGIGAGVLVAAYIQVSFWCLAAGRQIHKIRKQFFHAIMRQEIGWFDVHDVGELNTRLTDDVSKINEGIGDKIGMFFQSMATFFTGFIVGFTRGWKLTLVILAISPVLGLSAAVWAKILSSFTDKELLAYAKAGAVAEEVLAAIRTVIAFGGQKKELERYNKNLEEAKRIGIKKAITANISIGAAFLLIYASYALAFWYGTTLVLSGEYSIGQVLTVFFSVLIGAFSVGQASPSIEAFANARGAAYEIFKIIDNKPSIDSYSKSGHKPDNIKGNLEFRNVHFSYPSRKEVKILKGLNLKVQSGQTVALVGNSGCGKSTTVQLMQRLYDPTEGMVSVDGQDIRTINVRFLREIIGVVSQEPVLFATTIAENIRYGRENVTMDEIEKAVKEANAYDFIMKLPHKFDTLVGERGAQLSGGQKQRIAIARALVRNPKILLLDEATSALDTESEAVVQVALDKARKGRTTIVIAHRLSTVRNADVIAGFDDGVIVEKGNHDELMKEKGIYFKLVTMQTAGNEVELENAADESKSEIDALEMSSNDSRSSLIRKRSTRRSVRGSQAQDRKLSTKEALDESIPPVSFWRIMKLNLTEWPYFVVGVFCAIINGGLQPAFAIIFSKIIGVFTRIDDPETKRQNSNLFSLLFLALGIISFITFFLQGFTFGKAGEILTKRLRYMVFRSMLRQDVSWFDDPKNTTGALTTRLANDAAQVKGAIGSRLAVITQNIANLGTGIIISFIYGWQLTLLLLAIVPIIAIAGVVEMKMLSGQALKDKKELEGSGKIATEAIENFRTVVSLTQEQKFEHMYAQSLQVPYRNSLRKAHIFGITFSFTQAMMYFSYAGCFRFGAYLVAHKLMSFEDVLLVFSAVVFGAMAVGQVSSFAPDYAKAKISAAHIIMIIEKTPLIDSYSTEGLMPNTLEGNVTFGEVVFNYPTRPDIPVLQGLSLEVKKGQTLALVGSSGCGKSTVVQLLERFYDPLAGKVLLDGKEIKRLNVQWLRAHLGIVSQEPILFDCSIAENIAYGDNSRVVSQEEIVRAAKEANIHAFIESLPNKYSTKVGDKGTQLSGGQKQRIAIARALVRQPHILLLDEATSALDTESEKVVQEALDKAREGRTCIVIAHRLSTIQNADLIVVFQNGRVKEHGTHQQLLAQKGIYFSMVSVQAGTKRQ
P-gp, sequence (P08183 whole entry): as above

SMILES: Cc1ccnc(-c2cc(C)ccn2)c1.Cc1ccnc(-c2cc(C)ccn2)c1.Cc1ccnc(-c2cc(C)ccn2)c1.F[P-](F)(F)(F)(F)F.F[P-](F)(F)(F)(F)F.F[P-](F)(F)(F)(F)F.[Co+3] [complex 2, [Co^III(4,4’-Me2-bpy)3](PF6)3]
- IC50 [1]: 11.9 µM
- IC50 [2]: 5.44 µM
- IC50 [3]: 6.03 µM
- IC50 [4]: 15.4 µM
- autophagy induction (percentage of cells with endogenous LC3-II puncta formation) [5]: induce autophagy in dose-dependent manner
- IC50 [6]: 2.84 µM
- IC50 [7]: 7.86 µM
- IC50 ([8]; SGC-7901 cisplatin-resistant, MTT, 72 h): 12.6 µM
- Resistant Factor, SGC-7901 ([8]; cisplatin-resistant over cisplatin-sensitive IC50, SGC-7901): 1.14
- effect on P-gp activity (Rho123 accumulation) [9]: induced inhibitory effects towards P-gp activity in all the treated cell lines
- P-gp ATPase activity (change in luminescence) [10]: dose-dependently inhibited the ATPase activity of P-gp
- species detected in blood samples by HPLC-MS ([11]; 40 mg/kg intraperitoneal of complex 2, 5 min to 24 hours): neither cobalt complex 2 nor its decomposed species was observed
- metabolism after absorption ([11]; 40 mg/kg intraperitoneal, after 2-hour time interval): almost complete metabolism
